The data set relates to U138 cells. Description: MTT cell viability / cytotoxicity assay in U138 cells. As to the method:
Various drug combinations were incubated with U138 cells in cell culture media and the cells were then washed with PBS and added fresh media.

The mark [1] stands for this setting: therapeutic agent at 100 nM compared with non-toxic chemo-adjuvant O6-BG at 100 uM (FIG. 4).

Structures are written as SMILES.

In the case of `Nc1nc(OCc2ccccc2)c2nc[nH]c2n1` [O6-BG, O6-Benzylguanine], for the setting “free O6-BG 100 μg/ml (FIG. 6)”, the cytotoxicity result is reported as “not cytotoxic”. Moreover, the cell viability entry (incubation with various concentrations of O6-BG (FIG. 3)) is on record as “some effect on cell viability at very high concentrations”.

Turning to `CC(=O)O[C@H]1C(=O)[C@@]2(C)[C@H]([C@H](OC(=O)c3ccccc3)[C@]3(O)C[C@H](OC(=O)[C@H](O)[C@@H](NC(=O)c4ccccc4)c4ccccc4)C(C)=C1C3(C)C)[C@]1(OC(C)=O)CO[C@@H]1C[C@@H]2O` [paclitaxel], under setting [1], the cell viability result is given as “cell viability is lower”.

In the case of `C=CC(=O)Nc1cc2c(Nc3ccc(F)c(Cl)c3)ncnc2cc1OCCCN1CCOCC1` [canertinib], the cell viability entry under setting [1] is listed as “cell viability is lower”.

Values taken from patent US20130236504A1, “Delivery System for Enhancing Drug Efficacy” (CLEMSON UNIVERSITY, priority 2012, published 2013).
